Assay results as given in patent US9759725B2, “Treatment-induced damage to the tumor micro-environment promotes cancer therapy resistance through extracellular proteins” (Fred Hutchinson Cancer Research Center, priority 2012, dated 2017).
“Also recorded” adds a separate entry of the source.

What was measured:
PC3 cells [1] = assay: Acute in vivo response to MIT: cleaved caspase 3 IHC in xenografts; set-up: species or system mouse; conditions: 24 hours after MIT
Procedure: For assessments of the acute effects of chemotherapy, mice harboring xenografts of PC3 cells combined with PSC27 fibroblasts were treated with Mitoxantrone 0.2 mg/kg by i.p. injection, or vehicle control. Xenografts were collected 24 hour after treatment and tissues were processed for IHC. Apoptosis was assessed by staining with anti-caspase 3 antibody (cleaved, BioCare Medical). On adjacent sections, immunostaining with anti-γH2AX (Upstate) was performed to quantitate cells with DNA-damage.

PC3 cells [2] = assay: In vivo chemoresistance study: subrenal capsule xenografts treated with three cycles of MIT; set-up: species or system mouse
Procedure: All animal studies were performed in accordance with protocols approved by the Institutional Animal Care and Use Committee (IACUC) of Fred Hutchinson Cancer Research Center, and were carried out in accordance with the NIH Guide for laboratory animals. Mouse care/welfare and veterinary oversight were provided by the center animal care. ICR SCID mice (Taconic, Inc.) at an age of approximately 6 weeks (25 g body weight) were used. Rat tail collagen (high concentration, type I) was prepared before the ice-cold collagen solution was neutralized and adjusted to the proper osmolarity by adding a mixture of NaOH and ×10 PBS. To prepare tissue recombinants, fibroblasts (PSC27 strain) and epithelial cells (PC3, BPH1 or MDA-MB-231) were mixed at a ratio of 1:1, with each recombinant comprised of 250,000 cells of each line. After polymerization, the cell/collagen mixture was overlaid with growth medium and incubated at 37° C. for 1 hour before implantation.
Xenografting was performed under isoflurane anesthesia. A pocket beneath the back skin was formed using surgical scissors, with an oblique incision (<1 cm) made on the capsule surface parallel and adjacent to the long axis of each kidney. Cells were injected under the capsule with a blunt 25-gauge needle and a glass Hamilton syringe via a transrenal injection, forming a starting tumor with a volume of 1 to 2 mm^3. The kidney was returned to the retroperitoneal space and the skin was closed with surgical staples. The growth of xenografts was assessed at weekly intervals using ultrasound instruments. Animals were sacrificed at 2-8 weeks post transplantation, based on the tumor burden and pathological progression of tested animals. Upon dissection, tumor volume (V) was measured and calculated according to the tumor length (1) and width (w) by the following formula: V=(π/6)×((l+w)/2)^3 (Anand et al., Nat. Genet 31:301-305, 2002). Tumors were snap-frozen or processed conventionally for formalin fixation. Resulting sections were used for hematoxylin/eosin staining, and immunostaining for selected gene expression markers.
For chemoresistance studies, ICR SCID mice received subrenal capsule xenografts by implantation according to the procedure described above. After surgery, mice were given standard laboratory diets and water ad libitum for 2 weeks, to allow tumor uptake and growth initiation. Starting from the 3rd week (when tumor sizes reached from about 4 to about 8 mm in diameter), mice received Mitoxantrone at a dose of 0.2 mg/kg by i.p. injection, or vehicle control, on day 1 of week 3, week 5, and week 7 (Alderton et al., Cancer Res. 52:194-201, 1992). Between 8 and 12 mice were randomly assigned to each study arm. A total regimen of 3 2-week cycles was administered. After the final treatment cycle the mice were sacrificed, kidneys were removed for tumor measurement and histological analysis. The cumulative Mitoxantrone dose received per mouse was 0.6 mg/kg. Each experimental arm comprised 5-8 mice per treatment cohort.

Wnt16b = assay: Systemic effect of MIT on Wnt16b expression in mouse organs (Western immunoblot); assay type: in vivo; conditions: mice, three MIT treatments over eight weeks
Procedure: To determine the systemic effects of MIT treatment on Wnt16b expression, parallel experiments involved administering MIT or vehicle as per the treatment schema above, to cohorts of mice (n=6) without xenografts. At the completion of the 8-week treatment regimen, mice were euthanized and various tissues were rapidly resected and snap frozen or fixed in formalin. Following protein isolations, Western immunoblot analysis was performed for Wnt16b expression, as described above.

[3] = test system: primary prostate fibroblasts (PSC27 cells)
Procedure: After treatment, the cells were rinsed 3 times with PBS and left to recover for 3 days in PSC medium.
Cells growing on coverslips were rinsed, subjected to fixation in 4% paraformaldehyde and permeabilization with 0.1% Triton-X100 prior to immunostaining Primary mouse monoclonal anti-phospho-Histone H2A.X (Ser139) (clone JBW301) and secondary antibody Alexa Fluor® 488 (or 594)-conjugated F(ab′)2 goat anti-mouse IgG were sequentially applied. Nuclei were counterstained with 2 μg/ml of 4′,6-diamidino-2-phenylindole (DAPI) and coverslips were mounted onto glass slides. Upon visual examination of the DNA damage extent with immunofluorescence microscopy, DDR foci were recorded with a 4-category counting strategy, namely 4 classes: 0 foci, 1 to 3 foci, 4 to 10 foci, and >10 foci. Data from each cell line/treatment were averaged from a pool of 3 independent fields counting 100 nuclei per pool.

epithelial cells = assay: EMT-associated gene/protein expression in epithelial cells exposed to WNT16B conditioned medium; assay type: cell-based, human; conditions: epithelial cells in WNT16B fibroblast CM
prostate cancer cells [4] = assay: Chemoresistance (viability) assay with MIT in fibroblast conditioned medium; assay type: cell-based, human
Procedure: Chemoresistance assays were performed using epithelial cells cultured with either DMEM and low serum (0.5% FCS) (abbreviated as “DMEM”), or conditioned medium (CM) generated from PSC27, […] or OVF28901 cells expressing vector controls, WNT16B, or siRNAs. […] Cell viability was then assayed, and the percentage of viable cells was calculated by comparing each experiment to vehicle-treated cells. Each assay was repeated a minimum of 3 times with results reported as mean±s.e.m. For chemoresistance assays, various neoplastic epithelial cells were cultured with either DMEM of low serum (0.5% FBS) only (abbreviated as “DMEM”), or CM generated from PSC27, HBF1023 or OVF28901 in various states (e.g., WNT16B overexpression, WNT16B knockdown, irradiated). […] Cell viability was assayed by MTS or direct counting with trypan blue, and the percentage of viable cells was calculated by normalizing absorbance of each experiment to untreated cells. To assess the influence of WNT16B across a range of MIT concentrations, a series of drug concentrations were applied bracketing the IC50 dose, with percent survival plotted against MIT dose at a 3-day time point. […] Luciferase assays were performed using a Dual-Luciferase Reporter Assay kit, and fold induction for each cell line was calculated as normalized relative light units of TOPFLASH divided by those of FOPFLASH. […]

PC3 cells [5] = assay: Caspase 3/7 apoptosis assay of PC3 cells exposed to MIT; assay type: cell-based, human; conditions: 24 hour of MIT exposure (IC50)
Excerpt: For apoptosis assays, 0.2×10^6 PC3 cells were dispensed into 6-well culture plates and co-cultured with media conditioned from PSC27 sublines. […] For the morphological analysis, bright field pictures were taken for PC3 cells with inverted phase-contrast microscopy.

prostate cancer cells [6] = assay: Trans-well invasion of prostate cancer cells in fibroblast conditioned medium; assay type: cell-based, human; conditions: 24 h of treatment
Procedure: All assays were performed at least three times and reported as mean values. Assays of cell proliferation were performed with the CellTiter96® AQueous One Solution Cell Proliferation Assay (MTS) with signals captured using a 96-well plate reader or by direct counting using a hemacytometer. For trans-well migration and invasion assays, serum-starved cells in serum-free medium were added to the top chambers of Cultrex 24-well Cell Migration Assay plates (8 μm size) coated with or without basement membrane extract (BM) prepared as 0.5× of stock solution. CM from fibroblasts or regular epithelial media containing 10% fetal calf serum (FCS) were added to the bottom chambers. Migrating or invading cells in the bottom chambers were stained and plate absorbance was recorded at 485/520 nm emission. Each assay was performed in triplicate and measured at 24 hour time points over 3 days and presented as the average absorbance of migrating cells and invading cells, with human HeLA cervical cancer cell line (ATCC) used as a reference positive control. […] Luciferase assays were performed using a Dual-Luciferase Reporter Assay kit, and fold induction for each cell line was calculated as normalized relative light units of TOPFLASH divided by those of FOPFLASH. […]

prostate cancer cells [7] = assay: Proliferation of prostate cancer cells in fibroblast conditioned medium; assay type: cell-based, human; conditions: cell numbers 72 hours after treatment
Procedure: The cultures were incubated for 3 days after which cells were detached with trypsin and the total cell number was determined by direct counting with hemacytometer. The PSC27/BPH1-GFP proportion was determined on a FACScan using GFP fluorescence as a marker for BPH1-GFP cells. […] The supernatant was harvested, filtered, concentrated and either stored frozen at −80° C. or applied immediately. BPH1-GFP, PC3 and other cell lines were seeded in conditioned medium or fresh DMEM+0.5% FBS, and grown for specific time periods and the total number of cells was determined by direct counting. All assays were performed at least three times and reported as mean values. Assays of cell proliferation were performed with the CellTiter96® AQueous One Solution Cell Proliferation Assay (MTS) with signals captured using a 96-well plate reader or by direct counting using a hemacytometer. […] Migrating or invading cells in the bottom chambers were stained and plate absorbance was recorded at 485/520 nm emission. Each assay was performed in triplicate and measured at 24 hour time points over 3 days and presented as the average absorbance of migrating cells and invading cells, with human HeLA cervical cancer cell line (ATCC) used as a reference positive control. […]

WNT16B promoter = WNT16B promoter luciferase reporter assay; assay type: cell-based, human; conditions: compared to untreated cells
Excerpt: The immediate 5′ upstream sequences containing putative NF-κB binding elements of the WNT16B gene were amplified from genomic DNA extracted from PSC27 cells by a DNeasy Blood and Tissue kit (QIAGEN). PCR products were cloned into pCR2.1-TOPO vector (Invitrogen) and each insert was sequenced for confirmation. PCR fragments were then double-digested and subcloned into a reporter luciferase vector pGL4.22 vector. Constructs containing one or multiple mutant NF-κB binding sites were generated from the reporter vector series by site-directed mutagenesis. The NAT11-Luc2CP-IRES-nEGFP control construct that contains large copy numbers of NF-κB binding sequences and an optimized IL-2 minimal promoter as part of NFκB-activated transgene (NAT) system was kindly provided by Dr. Hatakeyama (Hokkaido University). All constructs were confirmed by DNA sequencing in both directions. Reporter vectors were co-transfected with pRL-TK vector for transfection efficiency controls and internal normalization for gene expression measurements. Cells were either treated with 20 ng/ml TNF-α for 90 min, exposed to 10 Gy γ-irradiation or 1 μM Mitoxantrone for 1 day. […] Luciferase activity was measured using the Luciferase Assay System and normalized luciferase activities were calculated as light units normalized to renilla luciferase activity present in each specimen.

Molecule: O=C1c2c(O)ccc(O)c2C(=O)c2c(NCCNCCO)ccc(NCCNCCO)c21 [MIT, mitoxantrone]
- apoptotic cells (cleaved caspase 3 IHC) (PC3 cells [1]; PC3+PSC27^C grafts): 34%
- apoptotic cells (cleaved caspase 3 IHC) (PC3 cells [1]; PC3+PSC27^WNT16B tumors): 14%
- tumor volumes, MIT vs no MIT (PC3 cells [2]; BPH-1 or PC3 plus PSC27^WNT16B or PSC27^C fibroblasts, three cycles of MIT): significantly reduced
- tumor volume after MIT (PC3 cells [2]; PC3 + PSC27^C+shRNA^C grafts): 20 mm^3
- tumor volume after MIT (PC3 cells [2]; PC3+PSC27-RAD grafts (300 mm^3 without MIT)): 55 mm^3
- tumor volume after MIT (PC3 cells [2]; PC3+PSC27^C grafts): 13 mm^3
- tumor volume after MIT (PC3 cells [2]; PC3+PSC27^WNT16B grafts): 78 mm^3
- tumor size, MIT-treated vs untreated mice (PC3 cells [2]; tumor cells with unirradiated PSC27 fibroblasts (PSC27^C)): substantially smaller
- expression of WNT16B protein in prostates, breasts and ovaries (Wnt16b): induced
- number of γ-H2AX foci [3]: substantially increased

Molecule: Oc1nc(-c2ccc(C(F)(F)F)cc2)nc2c1CSCC2 [XAV939]
- WNT16B-induced EMT-associated gene expression (epithelial cells): blocked
- effects of PSC27-RAD-conditioned medium on promoting tumor cell survival (prostate cancer cells [4]): attenuated
- attenuation of MIT apoptotic response by PSC27^WNT16B-conditioned medium (PC3 cells [5]): blocked
- invasive effect of the PSC27-RAD DDSP (full DDSP) (prostate cancer cells [6]): markedly attenuated; also recorded: attenuates
- invasive response induced by WNT16B (prostate cancer cells [6]): completely suppressed; also recorded: suppresses
- proliferative effect of the PSC27-RAD DDSP (full DDSP CM) (prostate cancer cells [7]): markedly attenuated; also recorded: attenuates
- proliferative response induced by WNT16B (PSC27^WNT16B CM) (prostate cancer cells [7]): completely suppressed; also recorded: suppresses

Molecule: OO [hydrogen peroxide]
- number of γ-H2AX foci [3]: substantially increased

Molecule: TNF-α
- WNT16B reporter activity (WNT16B promoter): induced

Molecule: bleomycin
- number of γ-H2AX foci [3]: substantially increased
